# Experimental data: ChEMBL document CHEMBL3102790, “Synthesis of quercetin glycosides and their melanogenesis stimulatory activity in B16 melanoma cells” (Bioorg Med Chem, 2014)
# Key:
# [1] = target: T1, Tyrosinase (Agaricus bisporus) (UniProt O42713); assay: Induction of mushroom tyrosinase activity using L-tyrosine as substrate at 50 uM after 30 mins
# T1 sequence (whole entry): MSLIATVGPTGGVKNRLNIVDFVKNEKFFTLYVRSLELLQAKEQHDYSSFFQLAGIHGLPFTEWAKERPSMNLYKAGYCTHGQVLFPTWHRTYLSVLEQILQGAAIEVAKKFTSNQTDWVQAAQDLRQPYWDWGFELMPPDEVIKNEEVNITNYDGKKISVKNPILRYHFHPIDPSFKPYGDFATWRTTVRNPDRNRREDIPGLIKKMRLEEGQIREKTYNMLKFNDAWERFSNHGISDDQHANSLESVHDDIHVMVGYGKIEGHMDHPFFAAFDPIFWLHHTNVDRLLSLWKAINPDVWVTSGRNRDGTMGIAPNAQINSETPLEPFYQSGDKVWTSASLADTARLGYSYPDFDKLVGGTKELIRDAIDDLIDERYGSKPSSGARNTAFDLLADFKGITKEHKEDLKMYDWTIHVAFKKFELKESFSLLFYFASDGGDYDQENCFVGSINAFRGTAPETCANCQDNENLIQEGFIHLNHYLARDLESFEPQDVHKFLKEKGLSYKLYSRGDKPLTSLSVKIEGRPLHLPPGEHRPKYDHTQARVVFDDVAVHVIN
# [2] = target: T1, Tyrosinase (Agaricus bisporus); assay: Induction of mushroom tyrosinase activity using L-tyrosine as substrate at 100 uM after 30 mins
# [3] = target: T1, Tyrosinase (Agaricus bisporus); assay: Induction of mushroom tyrosinase activity using L-tyrosine as substrate at 200 uM after 30 mins
# [4] = target: T1, Tyrosinase (Agaricus bisporus); assay: Induction of mushroom tyrosinase activity using L-DOPA as substrate at 50 uM after 30 mins
# [5] = target: T1, Tyrosinase (Agaricus bisporus); assay: Induction of mushroom tyrosinase activity using L-DOPA as substrate at 100 uM after 30 mins
# [6] = target: T1, Tyrosinase (Agaricus bisporus); assay: Induction of mushroom tyrosinase activity using L-DOPA as substrate at 200 uM after 30 mins
# [7] = Cytotoxicity against mouse B16F10 cells assessed as cell viability at 10 uM by MTT assay; type: cell-based, B16-F10; conditions: read-out: Activity
# [8] = Cytotoxicity against mouse B16F10 cells assessed as cell viability at 100 uM by MTT assay; type: cell-based, B16-F10; conditions: read-out: Activity
# [9] = Cytotoxicity against mouse B16F10 cells assessed as cell viability at 200 uM by MTT assay; type: cell-based, B16-F10; conditions: read-out: Activity
# [10] = system: B16-F10; assay: Induction of melanogenesis in mouse B16F10 cells assessed as intracellular melanin level at 10 uM after 72 hrs; type: functional
# [11] = system: B16-F10; assay: Induction of melanogenesis in mouse B16F10 cells assessed as intracellular melanin level at 100 uM after 72 hrs; type: functional
# [12] = system: B16-F10; assay: Induction of melanogenesis in mouse B16F10 cells assessed as intracellular melanin level at 200 uM after 72 hrs; type: functional
# [13] = system: B16-F10; assay: Induction of melanogenesis in mouse B16F10 cells assessed as intracellular melanin level after 72 hrs; type: functional, cell-based
# [14] = system: B16-F10; assay: Induction of melanogenesis in mouse B16F10 cells assessed as intracellular melanin level at 125 uM after 72 hrs; type: functional
# [15] = system: B16-F10; assay: Induction of melanogenesis in mouse B16F10 cells assessed as intracellular melanin level at 250 uM after 72 hrs; type: functional
# [16] = system: B16-F10; assay: Induction of melanogenesis in mouse B16F10 cells assessed as intracellular melanin level at 500 uM after 72 hrs; type: functional
# [17] = Cytotoxicity against mouse B16F10 cells assessed as cell viability at 125 uM by MTT assay; type: cell-based, B16-F10; conditions: read-out: Activity
# [18] = Cytotoxicity against mouse B16F10 cells assessed as cell viability at 250 uM by MTT assay; type: cell-based, B16-F10; conditions: read-out: Activity
# [19] = Cytotoxicity against mouse B16F10 cells assessed as cell viability at 500 uM by MTT assay; type: cell-based, B16-F10; conditions: read-out: Activity
Activity [1],Activity [2],Activity [3],Activity [4],Activity [5],Activity [6],Structure (SMILES),viability at 10 µM [7],viability at 100 µM [8],viability at 200 µM [9],Activity [10],Activity [11],Activity [12],Activity [13],Activity [14],Activity [15],Activity [16],viability at 125 µM [17],viability at 250 µM [18],viability at 500 µM [19]
103%,102%,104%,102%,104%,104%,O=c1c(O[C@@H]2O[C@H](CO)[C@@H](O[C@@H]3O[C@H](CO)[C@@H](O)[C@H](O)[C@H]3O)[C@H](O)[C@H]2O)c(-c2ccc(O)c(O)c2)oc2cc(O[C@@H]3O[C@H](CO)[C@@H](O)[C@H](O)[C@H]3O)cc(O)c12,95.1%,113%,98.7%,91.1%,78.9%,119%,–,–,–,–,–,–,–
104%,104%,101%,101%,102%,103%,O=c1c(O[C@@H]2O[C@H](CO)[C@@H](O[C@@H]3O[C@H](CO)[C@@H](O)[C@H](O)[C@H]3O)[C@H](O)[C@H]2O)c(-c2ccc(O)c(O)c2)oc2cc(O[C@@H]3O[C@H](CO)[C@@H](O[C@@H]4O[C@H](CO)[C@@H](O)[C@H](O)[C@H]4O)[C@H](O)[C@H]3O)cc(O)c12,105%,93.9%,95.2%,80.3%,97.8%,102.6%,–,–,–,–,–,–,–
97.5%,95%,82.2%,103%,107%,112%,O=c1c(O[C@@H]2O[C@H](CO)[C@@H](O[C@@H]3O[C@H](CO)[C@@H](O)[C@H](O)[C@H]3O)[C@H](O)[C@H]2O)c(-c2ccc(O)c(O)c2)oc2cc(O)cc(O)c12,99.6%,93.2%,81.1%,102.6%,126.8%,176%,Dose-dependent effect,–,–,–,–,–,–
–,–,–,–,–,–,Cn1c(=O)c2nc[nH]c2n(C)c1=O.O [THEOPHYLLINE],–,–,–,–,–,–,–,127.6%,131.7%,166.8%,95.5%,94.4%,91.4%
105%,95.9%,106%,101%,103%,101%,O=c1c(O[C@@H]2O[C@H](CO)[C@@H](O[C@@H]3O[C@H](CO)[C@@H](O)[C@H](O)[C@H]3O)[C@H](O)[C@H]2O)c(-c2ccc(O[C@@H]3O[C@H](CO)[C@@H](O)[C@H](O)[C@H]3O)c(O)c2)oc2cc(O)cc(O)c12,90%,86.8%,74.8%,137%,151.5%,190.5%,Dose-dependent effect,–,–,–,–,–,–
92.8%,85.5%,86.7%,103%,103%,106%,O=c1c(O[C@@H]2O[C@H](CO)[C@@H](O)[C@H](O)[C@H]2O)c(-c2ccc(O)c(O)c2)oc2cc(O[C@@H]3O[C@H](CO)[C@@H](O)[C@H](O)[C@H]3O)cc(O)c12,97.7%,78%,114%,85%,113.9%,86.5%,–,–,–,–,–,–,–
101%,98.8%,94.3%,102%,99.3%,99.3%,O=c1c(O[C@@H]2O[C@H](CO)[C@@H](O)[C@H](O)[C@H]2O)c(-c2ccc(O[C@@H]3O[C@H](CO)[C@@H](O)[C@H](O)[C@H]3O)c(O)c2)oc2cc(O)cc(O)c12,107%,104%,77.4%,89.7%,90.4%,92.6%,–,–,–,–,–,–,–
112%,96.2%,104%,107%,110%,116%,O=c1c(O[C@@H]2O[C@H](CO)[C@@H](O)[C@H](O)[C@H]2O)c(-c2ccc(O)c(O)c2)oc2cc(O)cc(O)c12 [ISOQUERCETIN],105%,80.9%,68.4%,116.3%,157.1%,206.9%,Dose-dependent effect,–,–,–,–,–,–
100%,95%,97.6%,107%,103%,108%,O=c1c(O[C@@H]2O[C@H](CO)[C@@H](O[C@@H]3O[C@H](CO)[C@@H](O)[C@H](O)[C@H]3O)[C@H](O)[C@H]2O)c(-c2ccc(O[C@@H]3O[C@H](CO)[C@@H](O[C@@H]4O[C@H](CO)[C@@H](O)[C@H](O)[C@H]4O)[C@H](O)[C@H]3O)c(O)c2)oc2cc(O)cc(O)c12,107%,106%,99.7%,79.7%,84.77%,99.7%,–,–,–,–,–,–,–
95.2%,89%,85.6%,108%,105%,110%,O=c1c(O[C@@H]2O[C@H](CO)[C@@H](O)[C@H](O)[C@H]2O)c(-c2ccc(O)c(O)c2)oc2cc(O[C@@H]3O[C@H](CO)[C@@H](O[C@@H]4O[C@H](CO)[C@@H](O)[C@H](O)[C@H]4O)[C@H](O)[C@H]3O)cc(O)c12,95.1%,113%,111%,91.1%,78.9%,83.8%,–,–,–,–,–,–,–
88.9%,85.2%,82.4%,103%,105%,109%,O=c1c(O[C@@H]2O[C@H](CO)[C@@H](O)[C@H](O)[C@H]2O)c(-c2ccc(O[C@@H]3O[C@H](CO)[C@@H](O[C@@H]4O[C@H](CO)[C@@H](O)[C@H](O)[C@H]4O)[C@H](O)[C@H]3O)c(O)c2)oc2cc(O)cc(O)c12,97.8%,107%,106%,96.8%,90.9%,96.3%,–,–,–,–,–,–,–
